Measurements as given in patent US10758552B2, “Pharmaceutical composition containing combinations of nicotinamide and 5-aminosalicylic acid for beneficially influencing the intestinal microbiota and/or treating gastrointestinal inflammation” (CONARIS RESEARCH INSTITUTE AG, priority 2013, dated 2020).

Assays:
[1] = test system: dextrane sodium sulfate (DSS) colitis model in mice; experiment: DSS colitis model in mice on Trp/Nia/NAM-free diet, histological scoring of the colon (Example 1); type: in vivo, C57BL/6J mice; details: 1.5% DSS
Experimental: In order to characterise the combined effect of 5-ASA and nicotinamide (NAM) in controlled release formulations for targeted delivery of both substances to the intestinal epithelium, a study was conducted in a dextrane sodium sulfate (DSS) colitis model in mice. In this study, a controlled release granule formulation for was tested in two different doses (30 mg/kg and 60 mg/kg). As a representative controlled release formulation for 5-ASA, 5-ASA granules ([…]®; Ferring Pharmaceuticals, Saint-Prex, Switzerland) were used both alone and in combination with the NAM granules. The controlled release formulation for NAM is a granulate of 25% nicotinamide, 70% dibasic calcium phosphate and 5% Povidone K30. The mean particle size was 234 μm. […] Filtering removed particles with a size of less than 355 μm. Control granules replaced NAM with an equivalent amount of dibasic calcium phosphate. Male C57BL/6J mice (specific pathogen free; Charles River Laboratories, Saint-Germain-sur-l'Arbresle, France) were taken into the test facility at >12 weeks of age and acclimatised for 1 week. The diet during the acclimatisation phase was diet A4, produced by SAFE (Scientific Animal Food and Engineering, Augy, France). […] The fixed doses for the other granules were calculated in an analogous fashion. […]

murine DSS colitis model = experiment: DSS colitis model in mice on normal diet, disease activity index (DAI) scoring (Example 2); type: in vivo, C57BL/6J mice; details: for % improvement of DAI vs DSS: granules in food, 2.5% DSS
Experimental: In a second and much larger study, NAM and 5-ASA controlled release granules were used again in the murine DSS colitis model (see Example 1) to confirm the anti-inflammatory properties of NAM in one low dose (30 mg/kg) and to investigate two higher dosages (120 or 240 mg/kg) not administered in the first study. […] One very important difference to the first study described in Example 1 was the fact that the mice received normal food with normal levels of tryptophan, nicotinic acid and nicotinamide (SAFE diet A4; Scientific Animal Food and Engineering, Augy, France; see Example 1). Therefore, any effects observed in this second study cannot be due to supplementation of NAM to NA/NAM/Trp-starved mice. In the present study, the same DSS colitis model in C57BL/6J mice as in Example 1 was used, albeit with some minor modifications: 2.5% DSS were used to provide a stronger DSS challenge. The animals were acclimatised for one week to stabilise their microbiota, randomised into 9 different groups as illustrated in the following Table 1 and then kept for 10 days on the different diets (days -10 to -1) before inducing colitis by DSS in the drinking water (day 0-day 6) followed by a washout period with normal drinking water (day 6-day 9). All groups received 2.5% DSS. [table] [table] The 5-ASA granules were the same as in Example 1. Their 5-ASA content was 52% (one granule weighed 0.5 mg and contained 0.26 mg of 5-ASA). The 5-ASA granules were mixed with regular food for preparation of single-use food aliquots, which were stored frozen at -20° C. and thawed daily prior to feeding the mice. […] Therefore, the food was prepared with 2.88 g of granules per kg of food (for the 150 mg/kg dose) or 1.44 g/kg (for the 75 mg/kg dose). The NAM granules of the present example were produced by the same manufacturer and in a similar formulation (diameter: 0.355-0.500 mm; NAM content: 19.1%) as in Example 1. Three kinds of food were prepared in an analogous fashion to the food with 5-ASA granules as described above. […] Therefore, the food preparation for the three dose groups was performed as follows: 1.57 g of granules per kg of food for the 30 mg/kg dose group, 6.28 g of granules per kg of food for the 120 mg/kg dose group and 12.56 g of granules per kg of food for the 240 mg/kg dose group. For the control group, food without granules was processed in the same fashion as the granule-containing food preparations described above in order to exclude preparation artefacts. After euthanasia, the colon was analysed and the disease activity index (DAI; score 0-9) was scored using an adapted DAI system based on […] et al. 2005 (Am. J. Physiol. Gastrointest. Liver Physiol. 288:[…]). As no visible blood was observed, the blood scoring parameter according to […] et al. was changed to scoring the signal strength for occult blood in feces detected by the ColoScreen test (Helena Laboratories, Beaumont, Tex., USA). This signal strength scoring was performed independently by two investigators blinded to the identity of the samples. [table] All comparisons were analysed using the […] for two independent samples in the StatXact software (Cytel, Cambridge, Mass., USA).

Row | Structure (SMILES) | histological score of the colonic mucosa ([1]; 5-ASA granules alone in diet, 150 mg/kg) | stool consistency (diarrhea) (murine DSS colitis model; 75 mg/kg 5-ASA alone) | % improvement of DAI vs DSS (murine DSS colitis model; 75 mg/kg 5-ASA) | stool consistency (diarrhea) (murine DSS colitis model; 150 mg/kg 5-ASA alone) | % improvement of DAI vs DSS (murine DSS colitis model; 150 mg/kg 5-ASA) | mice having blood in the feces (occult blood) (murine DSS colitis model; 150 mg/kg 5-ASA, control mice 100%, day of necropsy) | macroscopic inflammation score, dose effect (murine DSS colitis model; 5-ASA alone, 75 vs 150 mg/kg) | disease activity index (DAI), dose effect (murine DSS colitis model; doubling the dose of 5-ASA from 75 to 150 mg/kg) | histological score of the colonic mucosa ([1]; NAM granules alone in diet, 30 or 60 mg/kg) | % improvement of DAI vs DSS (murine DSS colitis model; 30 mg/kg NAM) | % improvement of DAI vs DSS (murine DSS colitis model; 120 mg/kg NAM) | % improvement of DAI vs DSS (murine DSS colitis model; 240 mg/kg NAM) | disease activity index (DAI), dose effect (murine DSS colitis model; NAM alone from 30 to 240 mg/kg) | macroscopic inflammation score, dose effect (murine DSS colitis model; NAM alone, 30 to 240 mg/kg) | stool consistency (diarrhea) (murine DSS colitis model; different NAM doses alone)
1 | Nc1ccc(O)c(C(=O)O)c1 [5-ASA, 5-aminosalicylic acid] | trend towards histological improvement | hardly improved | 28% | significant effect | 43% | 53% | no difference | stronger decrease of the DAI |  |  |  |  |  |  | 
2 | NC(=O)c1cccnc1 [NAM, nicotinamide] |  |  |  |  |  |  |  |  | trend towards histological improvement | 39% | 40% | 40% | no dose response | slight dose-dependent effect | hardly improved
